Measurements reported in patent EP1624029A1, “New Pyridinium imine based dyes and their use in optical layers for optical data recording” (CLARIANT INTERNATIONAL LTD., priority 2004, dated 2006).

Test: DSC thermal decomposition
Assay type: physicochemical
Settings: decomposition temperature by DSC
Source text: The optical and thermal properties of the pyridinium imine based dye compounds were studied. The dyes show high absorption at the desired wavelengths. In addition, the shape of the absorption spectra, that still remains critical to the disc reflectivity and formation of clean mark edges, are composed of one major band, comprised in a range of from 350 to 500 nm, preferably of from 350 to 400 nm. […] Sharp threshold of thermal decomposition within the required temperature range characterizes the new pyridinium imine based dyes which are assumed to be desirable for the application in optical layers for optical data recording. As a conclusion, the pyridinium imine based dye compounds are within the specifications which are primarily required by the industry for the use of dyes in optical data recording, in particular in the next-generation optical data recording media in the blue laser range.

CC[n+]1ccccc1N=CC1C(=O)NC(=O)NC1=O [Example 1]
DSC (decomp.): 326 °C
